Data reported in US10076519B2 (CYTOKINETICS, INC., priority 2010, dated 2018).

Tested on: rabbit skeletal myofibrils (fast skeletal myofibrils)
Test: Activation of fast skeletal myofibrils (PUMA assay, PK/LDH-coupled ATPase at pCa25)
Type: biochemical
Conditions: AC1.4 determined according to the procedure of Example 39; reported as class symbols
Summary of the method: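 ATPase activity of Triton-washed rabbit skeletal myofibrils, roughly 90% fast fibres, tracked by NADH loss at 340 nm through a PK/LDH-coupled ADP-regenerating system. Calcium set to 25% of maximal activity (pCa25), in PIPES 12 mM pH 6.8 with 2 mM MgCl2 and 1 mM DTT; AC1.4 reported.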

Structure (SMILES) | Mean AC1.4
Nc1n[nH]c2ccc(-c3ccc(NCC4(c5ccccc5)CC4)nn3)cc12 | A (A=<1 uM)
CC(C)(CNc1ccc(-c2cnc3cc[nH]c3c2)nn1)c1ccc(F)cc1 [[2-(4-fluorophenyl)-2-methylpropyl](6-pyrrolo[3,2-b]pyridin-6-ylpyridazin-3-yl)amine] | A (A=<1 uM)
COc1ncc(-c2ccc(NCC3(c4ccc(F)cc4)CCC3)nn2)cn1 [{[(4-fluorophenyl)cyclobutyl]meth-yl}[6-(2-methoxypyrimidin-5-yl)pyridazin-3-yl]amine] | B (B=1-10 uM)
COc1cccc(C2(CNc3ccc(-c4cc(C(N)=O)ccc4F)nn3)CCC2)n1 | A (A=<1 uM)
CC(C)(CNc1ccc(-c2ccccc2)nn1)c1ccc(F)cc1 [[2-(4-fluorophenyl)-2-methylpropyl](6-phenylpyridazin-3-yl)amine] | A (A=<1 uM)
CC(C)(C)OC(=O)N1CCN(C(=O)c2cccc(-c3ccc(NCC(C)(C)c4ccc(F)cc4)nn3)c2)CC1 [tert-butyl 4-{[3-(6-{[2-(4-fluorophenyl)-2-methylpropyl]amino}pyridazin-3-yl)phenyl]carbonyl}piperazine-carboxylate] | B (B=1-10 uM)
N=C(N)Nc1cccc(-c2ccc(NCC3(c4ncccc4F)CCC3)nn2)c1 | B (B=1-10 uM)
NC(=O)c1cccc(-c2ccc(NCCc3ccc(F)c(F)c3)nn2)c1 | C (C=10-20 uM)
Fc1cccnc1C1(CNc2ccc(-c3ccc4cn[nH]c4c3)nn2)CCC1 [(6-(1H-indazol-6-yl)pyridazin-3-yl){[(3-fluoro(2-pyridyl))cyclobutyl]methyl}amine] | A (A=<1 uM)
NC(=O)c1ccc(F)c(-c2ccc(NCC3(c4cccc(O)n4)CCC3)nn2)c1 | D (D=>20 uM)

Same assay, conditions: median AC1.4 class, procedure of Example 39

Structure (SMILES) | Mean AC1.4
NC(=O)c1ccc(F)c(-c2ccc(NC3(c4ncccc4Cl)CCC3)nn2)c1 | A (A=<1 uM)
CC(C)(Nc1ccc(-c2cc(C(N)=O)ccc2F)nn1)c1ccc(F)cc1 [4-fluoro-3-(6-{[1-(4-fluorophenyl)-isopropyl]amino}pyridazin-3-yl)benzamide] | A (A=<1 uM)
CC(C)(Nc1ccc(-c2cccc(NS(C)(=O)=O)c2)nn1)c1cccc(OC(F)F)n1 [{3-[6-({1-[6-(difluoromethoxy)(2-pyridyl)]-isopropyl}amino)pyridazin-3-yl]phenyl}(methylsulfonyl)amine] | A (A=<1 uM)
CC(C)(O)c1ncccc1-c1ccc(NCC2(c3ncccc3F)CCC2)nn1 | D (D=>20 uM)
Nc1ncc(-c2ccc(NCC3(c4ncccc4F)CCC3)nn2)cc1F [[6-(6-amino-5-fluoro(3-pyridyl))pyridazin-3-yl]{[(3-fluoro(2-pyridyl))cyclobutyl]methyl}amine] | A (A=<1 uM)
Fc1cccnc1C1(CNc2ccc(-c3cccc(-c4nn[nH]n4)c3)nn2)CCC1 [[6-(3-(2H-1,2,3,4-tetraazol-5-yl)phenyl)pyridazin-3-yl]{[(3-fluoro(2-pyridyl))cyclobutyl]methyl}amine] | A (A=<1 uM)
Fc1ccc(C2(Nc3ccc(-c4cn[nH]c4)nn3)CCC2)cc1 [[(4-fluorophenyl)cyclobutyl](6-pyrazol-4-ylpyridazin-3-yl)amine] | B (B=1-10 uM)
NC(=O)c1nccc(-c2ccc(NCC3(c4ncccc4F)CCC3)nn2)n1 [4-[6-({[(3-fluoro-2-pyridyl)cyclobutyl]methyl}ami-no)pyridazin-3-yl]pyrimidine-2-carboxamide] | D (D=>20 uM)
NC(=O)c1ccc(F)c(-c2ccc(NC3(c4cccc(OC(F)F)n4)CCC3)nn2)c1 | A (A=<1 uM)
CCOC(=O)c1cc(-c2ccc(NCC3(c4ncccc4F)CCC3)nn2)on1 | D (D=>20 uM)
CC(C)(Nc1ccc(-c2ccc(N)nc2)nn1)c1ccccc1 | B (B=1-10 uM)
COC(=O)c1cccc(-c2ccc(NC[C@]3(c4ncccc4F)C[C@H](F)C3)nn2)c1 [methyl 3-[6-({[3-fluoro-1-(3-fluoro(2-pyridyl))cyclobutyl]methyl}ami-no)pyridazin-3-yl]benzoate] | B (B=1-10 uM)
CS(=O)(=O)NCc1cnc(-c2ccc(NCC3(c4ncccc4F)CCC3)nn2)s1 [({2-[6-({[(3-fluoro(2-pyridyl))cyclobutyl]methyl}ami-no)pyridazin-3-yl](1,3-thiazol-5-yl)}methyl)(methylsulfonyl)amine] | B (B=1-10 uM)
CCOC(=O)/C=C/c1ccc(NC2(c3ncccc3F)CCC2)nn1 | D (D=>20 uM)
COC(=O)Nc1ncc(-c2ccc(NCC3(c4ncccc4F)CCC3)nn2)cn1 | D (D=>20 uM)
C=Cc1ccc(NCC2(c3ncccc3F)CCC2)nn1 [{[(3-fluoro(2-pyridyl))cyclobutyl]methyl}(6-vinylpyridazin-3-yl)amine] | D (D=>20 uM)
NC(=O)c1cccc(-c2ccc(NC3(c4ccc(Cl)cc4)CCC3)nn2)c1 | B (B=1-10 uM)

Same assay, conditions: median AC1.4 reported as class; procedure of Example 39

Structure (SMILES) | Mean AC1.4
Cc1cc(NCC2(c3ncccc3F)CCC2)nnc1-c1ncc(CC(N)=O)s1 [2-{2-[6-({[(3-fluoro(2-pyridyl))cyclobutyl]methyl}amino)-4-methylpyridazin-3-yl]-1,3-thiazol-5-yl}acetamide] | B (B=1-10 uM)
Cn1cc(NC(=O)c2ccc(NCC3(c4ncccc4F)CCC3)nn2)nc1C(N)=O [4-{[6-({[(3-fluoro(2-pyridyl))cyclobutyl]methyl}ami-no)pyridazin-3-yl]carbonylamino}-1-methylimidazole-2-carboxamide] | D (D=>20 uM)
CCOC(=O)c1cnc(NC(=O)c2ccc(NCC3(c4ncccc4F)CCC3)nn2)s1 [ethyl 2-{[6-({[(3-fluoro-2-pyridyl)cyclobutyl]methyl}ami-no)pyridazin-3-yl]carbonylamino}-1,3-thiazole-5-carboxylate] | D (D=>20 uM)
NC(=O)c1cc(-c2ccc(NC[C@]3(c4ncccc4F)C[C@H](F)C3)nn2)cc(C(F)(F)F)c1 [3-[6-({[3-fluoro-1-(3-fluoro(2-pyridyl))cyclobutyl]methyl}ami-no)pyridazin-3-yl]-5-(trifluoromethyl)benzamide] | B (B=1-10 uM)
CC(=O)N1CC(NC(=O)c2ccc(F)c(-c3ccc(NC[C@]4(c5ncccc5F)C[C@H](F)C4)nn3)c2)C1 [N-(1-acetylazetidin-3-yl){4-fluoro-3-[6-({[3-fluoro-1-(3-fluoro(2-pyridyl))cyclobutyl]methyl}ami-no)pyridazin-3-yl]phenyl}carboxamide] | A (A=<1 uM)
NC(=O)Cc1csc(NC(=O)c2ccc(NCC3(c4ncccc4F)CCC3)nn2)n1 [N-[4-(carbamoylmethyl)(1,3-thiazol-2-yl)][6-({[(3-fluoro(2-pyridyl))cyclobutyl]methyl}ami-no)pyridazin-3-yl]carboxamide] | A (A=<1 uM)
NC(=O)Cc1csc(-c2ccc(NCC3(c4ncccc4F)CCC3)nn2)n1 [2-{2-[6-({[(3-fluoro-2-pyridyl)cyclobutyl]methyl}ami-no)pyridazin-3-yl]-1,3-thiazol-4-yl}acetamide] | D (D=>20 uM)
